In patent publication US20200164006A1, “METHODS AND COMPOSITIONS OF INCORPORATING A BIOACTIVE AGENT AND USE THEREOF” (INNOVANUTRA INC., priority 2017, published 2020):

What was measured:
[1] = Incorporation of quercetin in microbial carriers, extraction and absorbance at 388 nm (incorporation yield and efficiency); type: physicochemical; conditions: cell incorporation process
Method: The phrases “loading efficiency” or “incorporation efficiency” interchangeably refer to the incorporation efficiency on both wet basis determined as follows: IE(%)=CE/CT×100, where CE is the mass of extracted bioactive from the lipid membrane microcapsules after incorporation on a wet basis and CT is the amount of bioactive initially added to the lipid membrane microcapsules. A standard calibration curve was spectrophotometrically obtained for quercetin (QU995 is the food-grade form of quercetin) in dimethyl sulfoxide (DMSO). Incorporation of quercetin in yeast cells with ethanol-buffer mixture was achieved by a non-thermal, vacuum infusion method. Inactivated food-grade yeast cells were used to incorporate quercetin with an initial aim of achieving an incorporation yield or loading percent of 0.5%. The dry yeast cells were first washed with deionized water and an ethanol solution. The washed cells were weighed for use as control (without quercetin) and sample (with quercetin). The incorporation was done in high vacuum conditions and the control and sample were incubated in the dark. […] A 500 μL of supernatant was removed and measured absorbance at 388 nm. […] The problem encountered in a quadruple infusion was crystallization of quercetin around carriers, instead of being incorporated (determined by a multiphoton fluorescence imaging). […]

[2] = pH stability for quercetin in yeast, in L. casei and unincorporated quercetin; type: physicochemical; conditions: pH 3, 4, 5, 6 over time; extraction at every time point
Method: A comparative pH test at different pH's (3, 4, 5, 6) was done with quercetin incorporated in yeast, in L. casei and un-incorporated quercetin. At every time point, an extraction was done to spectrophotometrically determine the amount of quercetin retained. […] The percent retention is calculated by dividing the absorbance value at each time point with the absorbance value at the initial t=0.

## O=c1c(O)c(-c2ccc(O)c(O)c2)oc2cc(O)cc(O)c12 [quercetin]
[1]
  amount of quercetin that can efficiently incorporate into the cells: 12.517 mg/g
[2]
  pH stability (amount of quercetin retained): rapid degradation over time
